These results are taken from patent publication US10927123B2, “Modulators of the beta-3 adrenergic receptor useful for the treatment or prevention of disorders related thereto” (Arena Pharmaceuticals, Inc., priority 2016, dated 2021).

For this assay, the target named is Beta-3 Adrenergic Receptor (Homo sapiens (Human), UniProt P13945). Briefly: HTRF cAMP antagonist assay (IC50 determination). It is filed as cell-based. The following applies: CHO-K1 cells stably expressing recombinant receptor; antagonism of isoproterenol at EC90; cAMP readout. The procedure, abridged: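 Antagonist mode: isoproterenol at its predetermined EC90 added after compound to recombinant CHO-K1 cells in IBMX-containing PBS, 1 h, room temperature. Compounds tested as 5-fold, 10-point dilutions, top final typically 10 or 100 μM. HTRF signal converted to cAMP via standard curve, giving IC50.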
Chain of Beta-3 Adrenergic Receptor (P13945 whole entry, species assumed): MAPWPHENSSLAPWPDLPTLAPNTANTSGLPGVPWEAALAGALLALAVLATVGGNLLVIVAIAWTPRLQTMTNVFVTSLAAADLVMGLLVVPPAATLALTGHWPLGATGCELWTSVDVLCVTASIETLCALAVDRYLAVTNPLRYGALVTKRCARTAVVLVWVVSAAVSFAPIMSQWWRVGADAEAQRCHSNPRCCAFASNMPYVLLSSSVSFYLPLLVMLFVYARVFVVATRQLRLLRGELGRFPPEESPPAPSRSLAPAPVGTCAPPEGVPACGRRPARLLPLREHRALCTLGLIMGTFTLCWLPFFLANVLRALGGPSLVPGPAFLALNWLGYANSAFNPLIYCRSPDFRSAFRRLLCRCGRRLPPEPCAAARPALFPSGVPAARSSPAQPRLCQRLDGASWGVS

As usually defined, the IC50 is the concentration that inhibits the measured activity by half. For `CS(=O)(=O)c1cccc(OC[C@@H](O)CNC2COC3(CCN(S(=O)(=O)c4ccc5[nH]ncc5c4)CC3)C2)c1` (some centres unmarked) [Compound 77, (2,5)-1-(8-(1H-indazol-5-ylsulfonyl)-1-oxa-8-azaspiro[4.5]decan-3-ylamino)-3-(3-(methylsulfonyl)phenoxy)propan-2-ol], the IC50 is 35.1 nM.
Regarding `CNCc1ccc(-c2cccc(S(=O)(=O)N3CCC4(CC3)CC(NC[C@H](O)COc3cccc(S(C)(=O)=O)c3)CO4)c2)cc1` (stereo partly drawn) [Compound 78, (2S)-1-(8-(4′-((methylamino)methyl)biphenyl-3-ylsulfonyl)-1-oxa-8-azaspiro[4.5]decan-3-ylamino)-3-(3-(methylsulfonyl)phenoxy)propan-2-ol], the half-inhibitory concentration (IC50) turned out to be 41.9 nM.
Regarding `CCNCc1ccc(-c2cccc(S(=O)(=O)N3CCC4(CC3)CC(NC[C@H](O)COc3cccc(S(C)(=O)=O)c3)CO4)c2)cc1` (stereo partly drawn) [Compound 79, (2S)-1-(8-(4′-((ethylamino)methyl)biphenyl-3-ylsulfonyl)-1-oxa-8-azaspiro[4.5]decan-3-ylamino)-3-(3-(methylsulfonyl)phenoxy)propan-2-ol], the IC50 stood at 42.2 nM.
Turning to `CC(C)NCc1ccc(-c2cccc(S(=O)(=O)N3CCC4(CC3)CC(NC[C@H](O)COc3cccc(S(C)(=O)=O)c3)CO4)c2)cc1` (stereo partly drawn) [Compound 80, (2S)-1-(8-(4′-((isopropylamino)methyl)biphenyl-3-ylsulfonyl)-1-oxa-8-azaspiro[4.5]decan-3-ylamino)-3-(3-(methylsulfonyl)phenoxy)propan-2-ol], the concentration for half-maximal inhibition (IC50) stood at 38.1 nM.
As for `CC(C)CNCc1ccc(-c2cccc(S(=O)(=O)N3CCC4(CC3)CC(NC[C@H](O)COc3cccc(S(C)(=O)=O)c3)CO4)c2)cc1` (stereo partly drawn) [Compound 81, (2S)-1-(8-(4′-((isobutylamino)methyl)biphenyl-3-ylsulfonyl)-1-oxa-8-azaspiro[4.5]decan-3-ylamino)-3-(3-(methylsulfonyl)phenoxy)propan-2-ol], the IC50 turned out to be 27.8 nM.
As for `CS(=O)(=O)c1cccc(OC[C@@H](O)CNC2COC3(CCN(S(=O)(=O)c4cccc(-c5ccc(CNCC(F)(F)F)cc5)c4)CC3)C2)c1` (stereo partly drawn) [Compound 82, (2S)-1-(3-(methylsulfonyl)phenoxy)-3-(8-(4′-((2,2,2-trifluoroethylamino)methyl)biphenyl-3-ylsulfonyl)-1-oxa-8-azaspiro[4.5]decan-3-ylamino)propan-2-ol], the IC50 is 43.2 nM.
Turning to `O=S(=O)(CCO)c1cccc(OC[C@@H](O)CN[C@H]2COC3(CCN(S(=O)(=O)c4ccc5c(c4)CCCO5)CC3)C2)c1` [Compound 83, (S)-1-((R)-8-(chroman-6-ylsulfonyl)-1-oxa-8-azaspiro[4.5]decan-3-ylamino)-3-(3-(2-hydroxyethylsulfonyl)phenoxy)propan-2-ol], the IC50 is 53.5 nM.
As to `CN1CCOc2ccc(S(=O)(=O)N3CCC4(CC3)C[C@@H](NC[C@H](O)COc3cccc(S(=O)(=O)CCO)c3)CO4)cc21` [Compound 84, (S)-1-(3-(2-hydroxyethylsulfonyl)phenoxy)-3-((R)-8-(4-methyl-3,4-dihydro-2H-benzo[6][1,4]oxazin-6-ylsulfonyl)-1-oxa-8-azaspiro[4.5]decan-3-ylamino)propan-2-ol], the IC50 came out at 54.7 nM.
Regarding `CS(=O)(=O)c1cccc(OC[C@@H](O)CN[C@@H]2COC3(CCN(S(=O)(=O)c4cnc5ccccc5c4)CC3)C2)c1` [Compound 85, (S)-1-(3-(methylsulfonyl)phenoxy)-3-((S)-8-(quinolin-3-ylsulfonyl)-1-oxa-8-azaspiro[4.5]decan-3-ylamino)propan-2-ol], the IC50 stood at 17.8 nM.
On to `O=S(=O)(CF)c1cccc(OC[C@@H](O)CNC2COC3(CCN(S(=O)(=O)c4ccc5ccccc5c4)CC3)C2)c1` (stereo partly drawn) [Compound 86, (2S)-1-(3-(fluoromethylsulfonyl)phenoxy)-3-(8-(naphthalen-2-ylsulfonyl)-1-oxa-8-azaspiro[4.5]decan-3-ylamino)propan-2-ol], for which the IC50 is 9.1 nM.
Take `O=S(=O)(CCO)c1cccc(OC[C@@H](O)CN[C@H]2COC3(CCN(S(=O)(=O)c4ccc5c(c4)OCCC5)CC3)C2)c1` [Compound 87, (S)-1-((R)-8-(chroman-7-ylsulfonyl)-1-oxa-8-azaspiro[4.5]decan-3-ylamino)-3-(3-(2-hydroxyethylsulfonyl)phenoxy)propan-2-ol]: the IC50 was found to be 41.1 nM.
As for `NCc1ccc(-c2cncc(S(=O)(=O)N3CCC4(CC3)C[C@@H](NC[C@H](O)COc3cccc(S(=O)(=O)CCO)c3)CO4)c2)cc1` [Compound 89, (S)-1-((R)-8-(5-(4-(aminomethyl)phenyl)pyridin-3-ylsulfonyl)-1-oxa-8-azaspiro[4.5]decan-3-ylamino)-3-(3-(2-hydroxyethylsulfonyl)phenoxy)propan-2-ol], the IC50 is 110 nM.
In the case of `Cn1cc(-c2cncc(S(=O)(=O)N3CCC4(CC3)C[C@@H](NC[C@H](O)COc3cccc(S(=O)(=O)CCO)c3)CO4)c2)cn1` [Compound 90, (S)-1-(3-(2-hydroxyethylsulfonyl)phenoxy)-3-((R)-8-(5-(1-methyl-1H-pyrazol-4-yl)pyridin-3-ylsulfonyl)-1-oxa-8-azaspiro[4.5]decan-3-ylamino)propan-2-ol], the IC50 was found to be 354 nM.
As for `NCc1ccc(-c2cccc(S(=O)(=O)N3CCC4(CC3)C[C@@H](NC[C@H](O)COc3cccc(S(=O)(=O)CCO)c3)CO4)c2)cc1` [Compound 91, (S)-1-((R)-8-(4′-(aminomethyl)biphenyl-3-ylsulfonyl)-1-oxa-8-azaspiro[4.5]decan-3-ylamino)-3-(3-(2-hydroxyethylsulfonyl)phenoxy)propan-2-ol], the figure is 37.1 nM.
In the case of `C=CS(=O)(=O)c1cccc(OC[C@@H](O)CN[C@H]2COC3(CCN(S(=O)(=O)c4cnc5ccccc5c4)CC3)C2)c1` [Compound 92, (S)-1-((R)-8-(quinolin-3-ylsulfonyl)-1-oxa-8-azaspiro[4.5]decan-3-ylamino)-3-(3-(vinylsulfonyl)phenoxy)propan-2-ol], the half-maximal inhibitory concentration (IC50) turned out to be 26.9 nM.
As for `O=S(=O)(CCO)c1cccc(OC[C@@H](O)CN[C@H]2COC3(CCN(S(=O)(=O)c4ccc5ncccc5c4)CC3)C2)c1` [Compound 93, (S)-1-(3-(2-hydroxyethylsulfonyl)phenoxy)-3-((R)-8-(quinolin-6-ylsulfonyl)-1-oxa-8-azaspiro[4.5]decan-3-ylamino)propan-2-ol], the IC50 stood at 75 nM.
As for `CS(=O)(=O)Cc1cccc(OC[C@H](O)CNC2COC3(CCN(S(=O)(=O)c4ccc5ccccc5c4)CC3)C2)c1` (stereo partly drawn) [Compound 94, (2R)-1-(3-(methylsulfonylmethyl)phenoxy)-3-(8-(naphthalen-2-ylsulfonyl)-1-oxa-8-azaspiro[4.5]decan-3-ylamino)propan-2-ol], the figure is 113 nM; as for `CS(=O)(=O)Cc1cccc(OC[C@@H](O)CN[C@H]2COC3(CCN(S(=O)(=O)c4cnc5ccccc5c4)CC3)C2)c1` [Compound 95, (S)-1-(3-(methylsulfonylmethyl)phenoxy)-3-((R)-8-(quinolin-3-ylsulfonyl)-1-oxa-8-azaspiro[4.5]decan-3-ylamino)propan-2-ol], 21.1 nM.
In the case of `O=S(=O)(CCO)c1cccc(OC[C@@H](O)CN[C@H]2COC3(CCN(S(=O)(=O)c4cccc(-c5ccncc5)c4)CC3)C2)c1` [Compound 96, (S)-1-(3-(2-hydroxyethylsulfonyl)phenoxy)-3-((R)-8-(3-(pyridin-4-yl)phenylsulfonyl)-1-oxa-8-azaspiro[4.5]decan-3-ylamino)propan-2-ol], the IC50 was found to be 411 nM.
As to `O=S(=O)(CCO)c1cccc(OC[C@@H](O)CN[C@H]2COC3(CCN(S(=O)(=O)c4cccc(-c5cccnc5)c4)CC3)C2)c1` [Compound 97, (S)-1-(3-(2-hydroxyethylsulfonyl)phenoxy)-3-((R)-8-(3-(pyridin-3-yl)phenylsulfonyl)-1-oxa-8-azaspiro[4.5]decan-3-ylamino)propan-2-ol], the concentration for half-maximal inhibition (IC50) is 212 nM.
For the compound `O=S(=O)(CCO)c1cccc(OC[C@@H](O)CN[C@H]2COC3(CCN(S(=O)(=O)c4ccc5cccnc5c4)CC3)C2)c1` [Compound 98, (S)-1-(3-(2-hydroxyethylsulfonyl)phenoxy)-3-((R)-8-(quinolin-7-ylsulfonyl)-1-oxa-8-azaspiro[4.5]decan-3-ylamino)propan-2-ol], the IC50 is 89 nM.
Take `O=S(=O)(CCO)c1cccc(OC[C@@H](O)CN[C@H]2COC3(CCN(S(=O)(=O)c4ccc(-c5cccnc5)cc4)CC3)C2)c1` [Compound 99, (S)-1-(3-(2-hydroxyethylsulfonyl)phenoxy)-3-((R)-8-(4-(pyridin-3-yl)phenylsulfonyl)-1-oxa-8-azaspiro[4.5]decan-3-ylamino)propan-2-ol]: the IC50 was determined as 287 nM.
Take `O=S(=O)(CCO)c1cccc(OC[C@@H](O)CN[C@H]2COC3(CCN(S(=O)(=O)c4cccc(-c5ccccn5)c4)CC3)C2)c1` [Compound 100, (S)-1-(3-(2-hydroxyethylsulfonyl)phenoxy)-3-((R)-8-(3-(pyridin-2-yl)phenylsulfonyl)-1-oxa-8-azaspiro[4.5]decan-3-ylamino)propan-2-ol]: the IC50 is 92.2 nM.
On to `O=S(=O)(CCO)c1cccc(OC[C@@H](O)CN[C@H]2COC3(CCN(S(=O)(=O)c4ccc(-c5ccncc5)cc4)CC3)C2)c1` [Compound 101, (S)-1-(3-(2-hydroxyethylsulfonyl)phenoxy)-3-((R)-8-(4-(pyridin-4-yl)phenylsulfonyl)-1-oxa-8-azaspiro[4.5]decan-3-ylamino)propan-2-ol], for which the IC50 stood at 466 nM.
Consider `O=S(=O)(CCO)c1cccc(OC[C@@H](O)CN[C@H]2COC3(CCN(S(=O)(=O)c4ccc(-c5ccccn5)cc4)CC3)C2)c1` [Compound 102, (S)-1-(3-(2-hydroxyethylsulfonyl)phenoxy)-3-((R)-8-(4-(pyridin-2-yl)phenylsulfonyl)-1-oxa-8-azaspiro[4.5]decan-3-ylamino)propan-2-ol], for which the IC50 is 114 nM.
Turning to `NCc1ccc(-c2ccc(S(=O)(=O)N3CCC4(CC3)C[C@@H](NC[C@H](O)COc3cccc(S(=O)(=O)CCO)c3)CO4)cc2)cc1` [Compound 103, (S)-1-((R)-8-(4′-(aminomethyl)biphenyl-4-ylsulfonyl)-1-oxa-8-azaspiro[4.5]decan-3-ylamino)-3-(3-(2-hydroxyethylsulfonyl)phenoxy)propan-2-ol], the IC50 was determined as 1200 nM.
